Reference: PMC4604124, “In Vitro Characterization of the Pharmacological Properties of the Anti-Cancer Chelator, Bp4eT, and Its Phase I Metabolites” (PLoS ONE, 2015)
Values joined by “and” are separate entries in the source; they are usually repeats but may differ in a detail not shown here. Equal values may be shown once. Read-outs that look alike come from different tables or passages of the source.

Legend:
Type in all cases: cell-based
[1] = tested on: HL-60 human promyelocytic leukemia cells; assay: MTT cytotoxicity assay, HL-60 cells; settings: for IC50: MTT, read-out: IC50
Outline: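 Cytotoxicity toward HL-60 leukemia cells was measured by MTT after a 72 h/37°C incubation with compounds, following 24 h pre-culture at 10,000 cells/well in 96-well plates. All media contained 0.1% DMSO. Optical density at 570 nm, corrected at 690 nm, gave viability relative to untreated controls (100%). IC50 values came from CalcuSyn 2.0, and data are mean ± SD.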

[2] = tested on: MCF-7 human breast adenocarcinoma cells; assay: MTT cytotoxicity assay, MCF-7 cells; settings: for IC50: MTT, read-out: IC50
Outline: (§1)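 After 24 h attachment, the tumour lines (MCF-7 at 5,000; HCT116 and A549 at 2,000 cells/well) receive compounds directly, whereas H9c2 cardiomyoblasts (10,000 cells/well) first spend 24 h in serum- and pyruvate-free DMEM. Treatment lasts 72 h at 37°C in 0.1% DMSO, followed by MTT staining.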

[3] = tested on: HCT116 human colorectal carcinoma cells; assay: MTT cytotoxicity assay, HCT116 cells; settings: for MTT, relative to control (0 = 100): HCT116, 2 000 b/j, 1 μM, sheet Z-Bp4eS
Outline: as §1

CCNC(=O)NN=C(c1ccccc1)c1ccccn1 [Z-Bp4eS, 2-benzoylpyridine 4-ethylsemicarbazone]
Therapeutic index, IC50 non-cancerous cells / IC50 neoplastic cells ([1]; 3T3/HL-60): >21.6
Therapeutic index, IC50 non-cancerous cells / IC50 neoplastic cells ([1]; H9c2/HL-60): 7.4
IC50 ([1]; HL-60, 72 h/37°C, mean ± SD, n ≥ 4): 46.2 ± 1.5 µM
MTT, relative to control (0 = 100) ([1]; HL-60, 10 000 b/j, 3 μM, průměr (mean), sheet Z-Bp4eS): 96.55
MTT, relative to control (0 = 100) ([1]; HL-60, 10 000 b/j, 3 μM, single experiment (date), sheet Z-Bp4eS): 99.8024 and 101.089 and 96.0475 and 94.6794 and 91.1123
MTT, relative to control (0 = 100) ([1]; HL-60, 10 000 b/j, 10 μM, průměr (mean), sheet Z-Bp4eS): 98.03
MTT, relative to control (0 = 100) ([1]; HL-60, 10 000 b/j, 10 μM, single experiment (date), sheet Z-Bp4eS): 97.8586 and 97.7431 and 101.779 and 97.3762 and 95.3935
MTT, relative to control (0 = 100) ([1]; HL-60, 10 000 b/j, 30 μM, průměr (mean), sheet Z-Bp4eS): 90.77
MTT, relative to control (0 = 100) ([1]; HL-60, 10 000 b/j, 30 μM, single experiment (date), sheet Z-Bp4eS): 95.7321 and 90.5946 and 90.8492 and 85.9082
MTT, relative to control (0 = 100) ([1]; HL-60, 10 000 b/j, 40 μM, průměr (mean), sheet Z-Bp4eS): 82.14
MTT, relative to control (0 = 100) ([1]; HL-60, 10 000 b/j, 40 μM, single experiment (date), sheet Z-Bp4eS): 82.3316 and 84.0304 and 91.7648 and 77.576 and 75.0054
MTT, relative to control (0 = 100) ([1]; HL-60, 10 000 b/j, 50 μM, průměr (mean), sheet Z-Bp4eS): 40.92
MTT, relative to control (0 = 100) ([1]; HL-60, 10 000 b/j, 50 μM, single experiment (date), sheet Z-Bp4eS): 42.5442 and 42.5088 and 37.382 and 41.2548
MTT, relative to control (0 = 100) ([1]; HL-60, 10 000 b/j, 80 μM, průměr (mean), sheet Z-Bp4eS): 2.08
MTT, relative to control (0 = 100) ([1]; HL-60, 10 000 b/j, 100 μM, průměr (mean), sheet Z-Bp4eS): 2.48
MTT, relative to control (0 = 100) ([1]; HL-60, 10 000 b/j, 300 μM, průměr (mean), sheet Z-Bp4eS): 2.72
MTT, relative to control (0 = 100) ([1]; HL-60, 10 000 b/j, 300 μM, single experiment (date), sheet Z-Bp4eS): 3.195 and 2.8028 and 2.136 and 2.734
IC50 ([1]; HL-60, 10 000 b/j, single experiment (date), sheet Z-Bp4eS): 46.2 µM and 48.3 µM and 45.5 µM
IC50 ([1]; Homo sapiens, HL-60, HL-60, 10 000 b/j, průměr (mean), sheet Z-Bp4eS): 46.2 µM
IC50 ([1]; Homo sapiens, HL-60, HL-60, 10 000 b/j, single experiment (date), sheet Z-Bp4eS): 44.9 µM
Therapeutic index, IC50 non-cancerous cells / IC50 neoplastic cells ([2]; 3T3/MCF-7): >5.1
Therapeutic index, IC50 non-cancerous cells / IC50 neoplastic cells ([2]; H9c2/MCF-7): 1.7
IC50 ([2]; MCF-7, 72 h/37°C, mean ± SD, n ≥ 4): 198 ± 20.9 µM
IC50 ([2]; MCF-7, 5 000 b/j, průměr (mean)): 198 µM
IC50 ([2]; MCF-7, 5 000 b/j, single experiment (by date)): 185 µM and 224 µM and 177 µM and 205 µM
MTT, value relative to 0 μM = 100 ([2]; MCF-7, 5 000 b/j, koncentrace 1 μM, průměr (mean)): 93.54
MTT, value relative to 0 μM = 100 ([2]; MCF-7, 5 000 b/j, koncentrace 1 μM, single experiment (by date)): 102.478 and 93.2821 and 90.3792 and 88.0305
MTT, value relative to 0 μM = 100 ([2]; MCF-7, 5 000 b/j, koncentrace 3 μM, průměr (mean)): 89.98
MTT, value relative to 0 μM = 100 ([2]; MCF-7, 5 000 b/j, koncentrace 3 μM, single experiment (by date)): 104.08 and 86.4853 and 85.3702 and 83.9685
MTT, value relative to 0 μM = 100 ([2]; MCF-7, 5 000 b/j, koncentrace 10 μM, průměr (mean)): 90.26
MTT, value relative to 0 μM = 100 ([2]; MCF-7, 5 000 b/j, koncentrace 10 μM, single experiment (by date)): 95.2561 and 95.1363 and 88.6166 and 84.693 and 87.5852
MTT, value relative to 0 μM = 100 ([2]; MCF-7, 5 000 b/j, koncentrace 30 μM, průměr (mean)): 93.09
MTT, value relative to 0 μM = 100 ([2]; MCF-7, 5 000 b/j, koncentrace 30 μM, single experiment (by date)): 93.8264 and 93.1628 and 90.8333 and 94.5401
MTT, value relative to 0 μM = 100 ([2]; MCF-7, 5 000 b/j, koncentrace 100 μM, průměr (mean)): 68.42
MTT, value relative to 0 μM = 100 ([2]; MCF-7, 5 000 b/j, koncentrace 100 μM, single experiment (by date)): 56.52 and 67.9071 and 73.7709 and 75.4946
MTT, value relative to 0 μM = 100 ([2]; MCF-7, 5 000 b/j, koncentrace 300 μM, průměr (mean)): 29.85
MTT, value relative to 0 μM = 100 ([2]; MCF-7, 5 000 b/j, koncentrace 300 μM, single experiment (by date)): 23.6355 and 38.2595 and 25.5292 and 31.9956
MTT, value relative to 0 μM = 100 ([2]; MCF-7, 5 000 b/j, koncentrace 1000 μM, průměr (mean)): 13.67
MTT, value relative to 0 μM = 100 ([2]; MCF-7, 5 000 b/j, koncentrace 1000 μM, single experiment (by date)): 18.442 and 16.1441 and 10.4709 and 9.64
Therapeutic index, IC50 non-cancerous cells / IC50 neoplastic cells ([3]; 3T3/HCT116): >3.0
Therapeutic index, IC50 non-cancerous cells / IC50 neoplastic cells ([3]; H9c2/HCT116): 1.0
IC50 ([3]; HCT116, 72 h/37°C, MTT, mean ± SD, n ≥ 4): 337 ± 48.5 µM
MTT, relative to control (0 = 100) ([3]; průměr (mean)): 98.02
MTT, relative to control (0 = 100) ([3]; single experiment (date)): 92.9248 and 94.2078 and 101.373 and 103.589
